Entries after “also recorded” stand apart in the source; their conditions may differ.
Assay: Safety and tolerability, healthy volunteers
Assay type: in vivo, human
Conditions: for number of treatment-related TEAEs: four subjects
Experimental: The subjects were further assessed for safety. Accordingly, hematology, chemistry, urinalysis testing and vital signs examination (seated systolic [SBP] and diastolic blood pressure [DBP], pulse, respiration rate, and temperature) were performed at screening, check-in and at the exit visit prior to discharge from the study. Seated vital signs were checked after 1 h, 4 h, and 12 h of the first dose on Day 1. 12-lead ECGs were recorded on Day 1 and Day 7 in triplicate 0.75 h, 0.5 h and 0.25 h prior to the dose and after 0.5 h, 1 h, 2 h, 3 h, 4 h, 8 h, 12 h, and 24 h of the dose with subjects in supine position. Lumbar catheter was placed on day 7 and the vital signs were checked after 1 h, 4 h, and 12 h of the dose. Vital signs were examined within 15 minutes prior to the collection of samples for PK studies.
All adverse event (AE)s were captured and documented throughout the study from the time of ICF signing to 7 days after the last dose of study medication or early termination.
The AEs were coded according to MedDRA® and grouped by Preferred Terms (PT) and System Organ Class (SOC). All AEs were classified and graded according to CTCAE Version 4.03 or later. Incidence (n) and percentage (%) was reported for coded TEAEs by cohort for the SAF Population. Subjects with more than one of the same PTs within an SOC were counted only once.
Categorical ECG analysis included the number and percentage of individuals with abnormal ECG findings and those with: absolute QTcF values >450 milliseconds, absolute QTcF values >480 milliseconds, absolute QTcF values >500 milliseconds, change from baseline >30 msec, and change from baseline >60 msec. No subject reported clinically significant abnormalities. […] No AEs related to ECG parameters were reported in any group during the study.
Forty-one healthy adult male volunteers aged 18 to 45 with body mass indexes (BMI)≥18 to ≤30 Kg/m^2 and total body weight >50 kg (110 lb) were screened in order to enroll 19 subjects with an average age of 34.2 years (range 21.5-45.6 years) into this study Six participants were randomly assigned to the 48 and 192 mg cohorts, and seven participants were assigned to the 384 mg cohort. After an overnight fast, participants received once daily doses of vodobatinib as capsules for 7 days. Serial PK blood samples to measure vodobatinib plasma concentrations were collected at pre-dose and at 0.25, 0.5, 1, 1.5, 2, 2.5, 3, 4, 6, 8, 12, 16 and 24 h post-dose after the first dose on Day 1 and the last dose on day 7. Additional PK samples prior to the morning doses were taken on Days 3-6. On the morning of Day 7, prior to dosing, an indwelling intrathecal catheter was inserted in the lumbar region (L3-L5). Serial CSF samples were collected through the catheter connected via peristaltic pump to a fraction collector. At each designated CSF collection time point, 8 mL of CSF was collected at a flow rate of 0.5 mL/min over a 16-min period at pre-dose, and 0.5, 1.0, 1.5, 2, 2.5, 3, 4, 6, 8, 12 and 24 h post-dose. The first 2 mL of CSF was discarded, and the remaining 6 mL was used for the vodobatinib assay. The occurrence of treatment-emergent adverse events (TEAEs) and serious AEs (SAEs) reported through the completion of study were collected. Clinical laboratory parameters, vital signs and physical examination data and electrocardiogram (ECG) were collected and evaluated relative to baseline values.

[1] = Total (N = 19), listed as vodobatinib
[2] = all cohorts, listed as vodobatinib

Compound: Cc1ccc(C(=O)NNC(=O)c2c(C)cccc2Cl)cc1C#Cc1cnc2ccccc2c1 [N′-(2-chloro-6-methylbenzoyl)-4-methyl-3-[2-(3-quinolyl)ethynyl]-benzohydrazide]
- IMP Related TEAEs: Abdominal Distension, N (%) (48 mg (N = 6)): 0
- IMP Related TEAEs: Gastrointestinal Disorders, N (%) (48 mg (N = 6)): 0
- IMP Related TEAEs: General Disorders and Administration Site Conditions, N (%) (48 mg (N = 6)): 0
- IMP Related TEAEs: Headache, N (%) (48 mg (N = 6)): 1 (16.7)
- IMP Related TEAEs: Musculoskeletal and Connective Tissue Disorders, N (%) (48 mg (N = 6)): 0
- IMP Related TEAEs: Myalgia, N (%) (48 mg (N = 6)): 0
- IMP Related TEAEs: Nausea, N (%) (48 mg (N = 6)): 0
- IMP Related TEAEs: Nervous System Disorders, N (%) (48 mg (N = 6)): 1 (16.7)
- IMP Related TEAEs: Pain, N (%) (48 mg (N = 6)): 0
- IMP Related TEAEs: Subjects with at least one AE, N (%) (48 mg (N = 6)): 1 (16.7)
- IMP Related TEAEs: Subjects with more than one AE, N (%) (48 mg (N = 6)): 0
- Number of subjects with at least one TEAE (48 mg (N = 6)): 4
- Study Drug Related TEAEs, subjects (48 mg (N = 6)): 1
- Study Drug Withdrawn, subjects (48 mg (N = 6)): 0
- TEAEs Certainly, subjects (48 mg (N = 6)): 0
- TEAEs Mild, subjects (48 mg (N = 6)): 4
- TEAEs Moderate, subjects (48 mg (N = 6)): 1
- TEAEs None (row before Study Drug Withdrawn), subjects (48 mg (N = 6)): 4
- TEAEs Possibly, subjects (48 mg (N = 6)): 1
- TEAEs Probably, subjects (48 mg (N = 6)): 0
- TEAEs Unlikely, subjects (48 mg (N = 6)): 0
- TEAEs Unrelated, subjects (48 mg (N = 6)): 4
- number of TEAEs (48 mg (N = 6)): 9
- IMP Related TEAEs: Abdominal Distension, N (%) (192 mg (N = 6)): 0
- IMP Related TEAEs: Gastrointestinal Disorders, N (%) (192 mg (N = 6)): 1 (16.7)
- IMP Related TEAEs: General Disorders and Administration Site Conditions, N (%) (192 mg (N = 6)): 0
- IMP Related TEAEs: Headache, N (%) (192 mg (N = 6)): 1 (16.7)
- IMP Related TEAEs: Musculoskeletal and Connective Tissue Disorders, N (%) (192 mg (N = 6)): 1 (16.7)
- IMP Related TEAEs: Myalgia, N (%) (192 mg (N = 6)): 1 (16.7)
- IMP Related TEAEs: Nausea, N (%) (192 mg (N = 6)): 1 (16.7)
- IMP Related TEAEs: Nervous System Disorders, N (%) (192 mg (N = 6)): 1 (16.7)
- IMP Related TEAEs: Pain, N (%) (192 mg (N = 6)): 0
- IMP Related TEAEs: Subjects with at least one AE, N (%) (192 mg (N = 6)): 1 (16.7)
- IMP Related TEAEs: Subjects with more than one AE, N (%) (192 mg (N = 6)): 1 (16.7)
- Number of subjects with at least one TEAE (192 mg (N = 6)): 4
- Study Drug Related TEAEs, subjects (192 mg (N = 6)): 1
- Study Drug Withdrawn, subjects (192 mg (N = 6)): 0
- TEAEs Certainly, subjects (192 mg (N = 6)): 0
- TEAEs Mild, subjects (192 mg (N = 6)): 4
- TEAEs Moderate, subjects (192 mg (N = 6)): 2
- TEAEs None (row before Study Drug Withdrawn), subjects (192 mg (N = 6)): 4
- TEAEs Possibly, subjects (192 mg (N = 6)): 1
- TEAEs Probably, subjects (192 mg (N = 6)): 0
- TEAEs Unlikely, subjects (192 mg (N = 6)): 1
- TEAEs Unrelated, subjects (192 mg (N = 6)): 3
- number of TEAEs (192 mg (N = 6)): 10
- IMP Related TEAEs: Abdominal Distension, N (%) (384 mg (N = 7)): 1 (14.3)
- IMP Related TEAEs: Gastrointestinal Disorders, N (%) (384 mg (N = 7)): 1 (14.3)
- IMP Related TEAEs: General Disorders and Administration Site Conditions, N (%) (384 mg (N = 7)): 1 (14.3)
- IMP Related TEAEs: Headache, N (%) (384 mg (N = 7)): 1 (14.3)
- IMP Related TEAEs: Musculoskeletal and Connective Tissue Disorders, N (%) (384 mg (N = 7)): 0
- IMP Related TEAEs: Myalgia, N (%) (384 mg (N = 7)): 0
- IMP Related TEAEs: Nausea, N (%) (384 mg (N = 7)): 1 (14.3)
- IMP Related TEAEs: Nervous System Disorders, N (%) (384 mg (N = 7)): 1 (14.3)
- IMP Related TEAEs: Pain, N (%) (384 mg (N = 7)): 1 (14.3)
- IMP Related TEAEs: Subjects with at least one AE, N (%) (384 mg (N = 7)): 2 (28.6)
- IMP Related TEAEs: Subjects with more than one AE, N (%) (384 mg (N = 7)): 1 (14.3)
- Number of subjects with at least one TEAE (384 mg (N = 7)): 3
- Study Drug Related TEAEs, subjects (384 mg (N = 7)): 2
- Study Drug Withdrawn, subjects (384 mg (N = 7)): 0
- TEAEs Certainly, subjects (384 mg (N = 7)): 0
- TEAEs Mild, subjects (384 mg (N = 7)): 3
- TEAEs Moderate, subjects (384 mg (N = 7)): 1
- TEAEs None (row before Study Drug Withdrawn), subjects (384 mg (N = 7)): 3
- TEAEs Possibly, subjects (384 mg (N = 7)): 2
- TEAEs Probably, subjects (384 mg (N = 7)): 1
- TEAEs Unlikely, subjects (384 mg (N = 7)): 3
- TEAEs Unrelated, subjects (384 mg (N = 7)): 0
- number of TEAEs (384 mg (N = 7)): 9
- subjects with absolute QTcF >450 ms (48, 192, 384 mg): None of the subjects
- Study Drug Withdrawn, subjects (Total (N = 19)): 0
- TEAEs Certainly, subjects (Total (N = 19)): 0
- TEAEs Mild, subjects (Total (N = 19)): 11
- TEAEs Moderate, subjects (Total (N = 19)): 4
- TEAEs None (row before Study Drug Withdrawn), subjects (Total (N = 19)): 11
- TEAEs Possibly, subjects (Total (N = 19)): 4
- TEAEs Probably, subjects (Total (N = 19)): 1
- TEAEs Unlikely, subjects (Total (N = 19)): 4
- TEAEs Unrelated, subjects (Total (N = 19)): 7
- number of TEAEs (Total (N = 19)): 28
- Number of subjects with at least one TEAE [1]: Eleven
- Study Drug Related TEAEs, subjects [1]: Four
- SAEs (all cohorts): No subject experienced an SAE; also recorded: no SAEs
- TEAE abdominal distention (all cohorts): 10.5%
- TEAE back pain (all cohorts): 10.5%
- TEAE headache and nausea (all cohorts): 15.8%
- TEAE post lumbar puncture syndrome (all cohorts): 42.1%
- findings in clinical laboratory results, vital signs, ECGs, physical examinations (all cohorts): no clinically relevant or significant findings
- subjects with TEAEs unlikely related to study treatment (all cohorts): 21%
- subjects with TEAEs unrelated to study treatment (all cohorts): 37%
- subjects with mild TEAEs (all cohorts): 58%
- subjects with moderate TEAEs (all cohorts): 21%
- subjects reporting TEAEs (all cohorts (N = 19)): 58%
- number of treatment-related TEAEs (all cohorts): 7
- number of treatment-related TEAEs [2]: seven
- SAEs [2]: no SAEs
